# Entries after “also recorded” stand apart in the source; their conditions may differ. Starred links: 1 amine or outer side, 2 acyl side, 3 side chain; linkers in the order of their positions; H or OH if unused. Positions of bridges follow the written chain, without caps; N, C: chain ends. Non-standard residues stand in square brackets, D forms with d. Residues, ends and D or L forms follow the SMILES beside them. Chains are numbered I, II in the order given. Actinocin(9to1) = Cc1c2oc3c(C)ccc(C(=O)[*:1])c3nc-2c(C(=O)[*:2])c(N)c1=O; NMeV = CN[C@H](C(=O)O)C(C)C; Sar = CNCC(=O)O
# Test system: [V13′T]α10 nAChR
# Format: cell-based, human (expressed in Xenopus laevis oocytes)
compound,measurement,value
"Cc1c2oc3c(C)ccc(C(=O)N[C@@H]4C(=O)N[C@H](C(C)C)C(=O)N5CCC[C@H]5C(=O)N(C)CC(=O)N(C)[C@@H](C(C)C)C(=O)O[C@@H]4C)c3nc-2c(C(=O)N[C@@H]2C(=O)N[C@H](C(C)C)C(=O)N3CCC[C@H]3C(=O)N(C)CC(=O)N(C)[C@@H](C(C)C)C(=O)O[C@@H]2C)c(N)c1=O [actinomycin D] (I: T[dV]P[Sar][NMeV] / II: T[dV]P[Sar][NMeV]; ester I:1-I:C, II:1-II:C; linker I:N-II:N via Actinocin(9to1))",effect of actinomycin D on ACh-induced currents,did not differ in the magnitude of their ACh-induced currents from untreated controls; also recorded: not significantly different
same,mean ACh-induced response with actinomycin D,−233 ± 219 nA

# Reference: paper PMC11850127 (The Journal of Biological Chemistry, 2025)
